US8865448B2, “Aspergillus containing beta-glucosidase, beta-glucosidases and nucleic acids encoding the same” (Cleanvantage LLC, priority 2010, dated 2014)

Assays:
[1] = test system: Aspergillus saccharolyticus (strain AP, CBS 127449) beta-glucosidases, crude enzyme extract; assay: Glucose tolerance / product inhibition, crude extract of strain AP; type: biochemical
Description: The fungal strain AP/Aspergillus saccharolyticus was grown on potato dextrose agar (Sigma) for sporulation. Spores were harvested after 7 days of growth by adding sterile water to the plate and scrape on the surface of the culture. The heavy spore suspension was filtered through Myra cloth. Two ml of the spore solution was inoculated into 200 ml seed medium (2.0 g/l wheat bran, 5 g/l corn steep powder, 0.25 g/l yeast extract, 0.75 g/l peptone, 1.4 g/l (NH4)2SO4, 2.0 g/l KH2PO4, 0.4 g/l CaCl2 2H2O, 0.3 g/l MgSO4H2O, 5.0 mg/l FeSO4, 1.6 mg/l MnSO4 7H2O, 1.4 mg/l ZnSO4 7H2O, 2.0 CoCl2 6H2O) in an 500 ml Erlenmeyer flask, and incubated at 30° C. for 2 days, shaking at 160 rpm. Solid state fermentation at approximately 30% TS was carried out adding 100 ml of the cultivated seed medium to 1 l of a solid state fermentation medium comprising of 343 g wheat bran (TS of 87.4%), 9 g corn steep powder, 557 ml Czapek liquid (3 g/l NaNO3, 1 g/l K2HPO4, 0.5 g/l KCl, 0.5 g/l MgSO4 7H2O, 0.01 g/l FeSO4 7H2O) (Samson et al., 2004a). […] The samples were incubated at 30° C. without shaking. After 7 days incubation, liquid was extracted from the medium by pressing the medium by hand using gloves. The extract was centrifuged at 10000 g, and the supernatant filtered through Whatman filter paper.
[…] The remaining activity (glucose tolerance) was measured spectrophotometrically by release of pNP at 50° C. reaction conditions, as described earlier. Triple determinations were performed. […] Triple determinations were performed.

[2] = test system: Novozym 188 beta-glucosidase (Aspergillus niger), commercial preparation; assay: Glucose tolerance / product inhibition, Novozym 188; type: biochemical
Description: (§1) For testing glucose tolerance, 5 mM pNPG in NaCltrate buffer pH 4.8 was used as substrate with different glucose amounts added, ranging final glucose concentrations of 0-280 mM. The remaining activity (glucose tolerance) was measured spectrophotometrically by release of pNP at 50° C. reaction conditions, as described earlier. Triple determinations were performed. […] Triple determinations were performed.

[3] = test system: Cellic CTec beta-glucosidases, commercial preparation; assay: Glucose tolerance / product inhibition, Cellic CTec; type: biochemical
Description: as §1

[4] = target: T1, Aspergillus saccharolyticus CBS 127449 beta-glucosidase BGL1, his-tagged, expressed in T. reesei, SEQ ID NO: 3 (without signal peptide SEQ ID NO: 4) (Aspergillus saccharolyticus, UniProt G0X2F9); assay: Glucose inhibition, purified BGL1; type: biochemical; conditions: pNPG as substrate (5 mM), 50° C., pH 4.8
T1 construct: mature form lacks signal peptide 1-19
T1 sequence (G0X2F9 20-860): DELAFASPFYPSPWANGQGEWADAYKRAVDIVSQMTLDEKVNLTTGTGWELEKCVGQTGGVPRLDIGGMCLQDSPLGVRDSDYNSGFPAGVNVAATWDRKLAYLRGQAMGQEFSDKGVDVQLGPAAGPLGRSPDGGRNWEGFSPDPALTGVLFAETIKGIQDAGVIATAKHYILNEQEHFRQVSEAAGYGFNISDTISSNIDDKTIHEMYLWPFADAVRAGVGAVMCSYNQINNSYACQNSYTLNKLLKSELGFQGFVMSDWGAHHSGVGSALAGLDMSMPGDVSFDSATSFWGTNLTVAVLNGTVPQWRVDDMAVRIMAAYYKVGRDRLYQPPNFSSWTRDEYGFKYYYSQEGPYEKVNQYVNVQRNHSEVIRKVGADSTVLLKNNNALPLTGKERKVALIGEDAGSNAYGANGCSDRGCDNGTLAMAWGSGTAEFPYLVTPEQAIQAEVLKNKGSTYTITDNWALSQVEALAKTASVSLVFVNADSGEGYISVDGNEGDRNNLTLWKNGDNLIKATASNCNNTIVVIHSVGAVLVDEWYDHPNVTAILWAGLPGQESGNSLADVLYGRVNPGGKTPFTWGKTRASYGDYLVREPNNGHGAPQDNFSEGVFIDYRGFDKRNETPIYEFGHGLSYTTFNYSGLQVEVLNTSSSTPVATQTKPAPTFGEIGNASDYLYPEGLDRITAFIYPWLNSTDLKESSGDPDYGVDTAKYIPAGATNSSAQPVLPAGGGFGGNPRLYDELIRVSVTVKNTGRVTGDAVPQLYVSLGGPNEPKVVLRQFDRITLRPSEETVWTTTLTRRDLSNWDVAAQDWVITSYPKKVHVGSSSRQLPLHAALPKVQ
Description: as §1
The his-tagged beta-glucosidases were purified on the ÄKTApurifier system with UNICORN software, using a HisTrap HP 5 ml […] column (GE Healthcare), run at a flow rate of 5 ml/min. The column was equilibrated with 5CV of binding buffer (20 mM sodium phosphate, 0.5M NaCl, pH 7.4), 100 ml sample was loaded onto the column, followed by washing with binding buffer till the absorbance reached the baseline. The his-tagged beta-glucosidases were eluted with 3CV elution buffer (20 mM sodium phosphate, 0.5M NaCl, 500 mM imidazole, pH 7.4) and the peak (1 CV) collected by monitoring the absorbance.
(§2) Michaelis Menten kinetics, glucose tolerance, termostability, pH optimum, and cellodextrin hydrolysis were carried out as described in EXAMPLE 1.

[5] = substrate: OC[C@H]1O[C@@H](O[C@H]2[C@H](O)[C@@H](O)C(O)O[C@@H]2CO)[C@H](O)[C@@H](O)[C@@H]1O; assay: purified protein, by the assay type; conditions: other: cellobiose as substrate, 50° C., pH 4.8, Hanes plot
[6] = Thermostability: remaining beta-glucosidase activity after incubation at different temperatures; type: physicochemical
Description: For testing the thermostability of the enzyme extract, aliquots of the extracts were incubated in PCR tubes in a thermocycler with temperature gradient option at 12 different temperatures from 48.5 to 67.0° C. for different time periods (0-4 hours) followed by assaying the activity at 50° C. with 5 mM pNPG in NaCltrate buffer pH 4.8 as substrate. The rate of denaturation, kD, was calculated as the slope of a semi-logaritmic plot of remaining activity vs incubation time. The half life was calculated as: T1/2=ln(2)/kD.
as §2

[7] = pH profile of beta-glucosidase activity on pNPG; type: biochemical; conditions: 50 C
Description: For testing the pH optimum of the enzyme extracts, they were assayed at 50° C. with 5 mM pNPG in Citrate Phosphate buffer at different pH ranging from 2.65 to 7.25. Endoglucanase activity of Celluclast 1.5 L was assayed with AZO-CMC as described by the manufacturer (Megazyme), but testing the same pH range 2.65-7.25 as for the pNPG assay.
as §2

[8] = Hydrolysis of cellodextrins (cellohexaose); type: biochemical; conditions: 50 C, pH 4.8, 30 min time course
Description: Hydrolysis of cellohexaose was carried out by mixing, in the ratio 1:1, 0.2 mM cellohexaose in 50 mM NaCltrate buffer pH 4.8 and enzyme diluted in 50 mM NaCltrate buffer pH 4.8 to a concentration of 3.7 μg/ml. The reaction was incubated at 50° C. and for a period of 30 min, 100 μl sample was placed on ice every 5 min. 100 μl 200 mM NaOH was added to terminate the reaction, and after another 1 fold dilution with 100 mM NaOH, the samples were analyzed at Dionex ICS3000 using gradient elution: 0-30% eluent B in 26 min followed by 2 min washing with 50% eluent B (0.5 M NaAcetate in 100 mM NaOH) and 5 min re-equilibrating with 100% eluent A (100 mM NaOH).
as §2

[9] = cellobiose as substrate, product and substrate in equal concentrations
[10] = cellobiose as substrate, twice the concentration of glucose compared to cellobiose
[11] = pNPG as substrate, product concentration 12 times higher than the substrate concentration

OC[C@H]1OC(O)[C@H](O)[C@@H](O)[C@@H]1O (stereo partly drawn) [glucose]
glucose concentration at half the maximum activity, relative to substrate concentration ([1]; 5 mM pNPG as substrate): 36 × the substrate concentration | remaining activity with glucose [1, 9]: around 80% | remaining activity with glucose [1, 10]: 50% | remaining activity with glucose [1, 11]: > 80% | glucose concentration at half the maximum activity, relative to substrate concentration ([2]; 5 mM pNPG as substrate): 12 × the substrate concentration | IC50 ([2]; 5 mM pNPG as substrate, 50° C., pH 4.8, calculated, read-out: glucose concentration at half the maximum activity): 60 mM | remaining activity with glucose [2, 9]: around 80% | remaining activity with glucose [2, 10]: 50% | remaining activity with glucose [2, 11]: below 40% | glucose concentration at half the maximum activity, relative to substrate concentration ([3]; 5 mM pNPG as substrate): 23 × the substrate concentration | remaining activity with glucose [3, 11]: approx 75% | product (glucose) concentration at reduction in activity to 50% [4]: 30 times greater than the substrate concentration

B1: Aspergillus saccharolyticus CBS 127449 beta-glucosidase BGL1, his-tagged, expressed in T. reesei, SEQ ID NO: 3 (without signal peptide SEQ ID NO: 4) … (protein)
chain: DELAFASPFYPSPWANGQGEWADAYKRAVDIVSQMTLDEKVNLTTGTGWELEKCVGQTGGVPRLDIGGMCLQDSPLGVRDSDYNSGFPAGVNVAATWDRKLAYLRGQAMGQEFSDKGVDVQLGPAAGPLGRSPDGGRNWEGFSPDPALTGVLFAETIKGIQDAGVIATAKHYILNEQEHFRQVSEAAGYGFNISDTISSNIDDKTIHEMYLWPFADAVRAGVGAVMCSYNQINNSYACQNSYTLNKLLKSELGFQGFVMSDWGAHHSGVGSALAGLDMSMPGDVSFDSATSFWGTNLTVAVLNGTVPQWRVDDMAVRIMAAYYKVGRDRLYQPPNFSSWTRDEYGFKYYYSQEGPYEKVNQYVNVQRNHSEVIRKVGADSTVLLKNNNALPLTGKERKVALIGEDAGSNAYGANGCSDRGCDNGTLAMAWGSGTAEFPYLVTPEQAIQAEVLKNKGSTYTITDNWALSQVEALAKTASVSLVFVNADSGEGYISVDGNEGDRNNLTLWKNGDNLIKATASNCNNTIVVIHSVGAVLVDEWYDHPNVTAILWAGLPGQESGNSLADVLYGRVNPGGKTPFTWGKTRASYGDYLVREPNNGHGAPQDNFSEGVFIDYRGFDKRNETPIYEFGHGLSYTTFNYSGLQVEVLNTSSSTPVATQTKPAPTFGEIGNASDYLYPEGLDRITAFIYPWLNSTDLKESSGDPDYGVDTAKYIPAGATNSSAQPVLPAGGGFGGNPRLYDELIRVSVTVKNTGRVTGDAVPQLYVSLGGPNEPKVVLRQFDRITLRPSEETVWTTTLTRRDLSNWDVAAQDWVITSYPKKVHVGSSSRQLPLHAALPKVQ
Km [5]: 1900 µM

B2: BGL1: GH family 3 beta-glucosidase of Aspergillus saccharolyticus; his-tagged, expressed in T. reesei and purified for characterisation (protein, listed as Aspergillus saccharolyticus)
chain: DELAFASPFYPSPWANGQGEWADAYKRAVDIVSQMTLDEKVNLTTGTGWELEKCVGQTGGVPRLDIGGMCLQDSPLGVRDSDYNSGFPAGVNVAATWDRKLAYLRGQAMGQEFSDKGVDVQLGPAAGPLGRSPDGGRNWEGFSPDPALTGVLFAETIKGIQDAGVIATAKHYILNEQEHFRQVSEAAGYGFNISDTISSNIDDKTIHEMYLWPFADAVRAGVGAVMCSYNQINNSYACQNSYTLNKLLKSELGFQGFVMSDWGAHHSGVGSALAGLDMSMPGDVSFDSATSFWGTNLTVAVLNGTVPQWRVDDMAVRIMAAYYKVGRDRLYQPPNFSSWTRDEYGFKYYYSQEGPYEKVNQYVNVQRNHSEVIRKVGADSTVLLKNNNALPLTGKERKVALIGEDAGSNAYGANGCSDRGCDNGTLAMAWGSGTAEFPYLVTPEQAIQAEVLKNKGSTYTITDNWALSQVEALAKTASVSLVFVNADSGEGYISVDGNEGDRNNLTLWKNGDNLIKATASNCNNTIVVIHSVGAVLVDEWYDHPNVTAILWAGLPGQESGNSLADVLYGRVNPGGKTPFTWGKTRASYGDYLVREPNNGHGAPQDNFSEGVFIDYRGFDKRNETPIYEFGHGLSYTTFNYSGLQVEVLNTSSSTPVATQTKPAPTFGEIGNASDYLYPEGLDRITAFIYPWLNSTDLKESSGDPDYGVDTAKYIPAGATNSSAQPVLPAGGGFGGNPRLYDELIRVSVTVKNTGRVTGDAVPQLYVSLGGPNEPKVVLRQFDRITLRPSEETVWTTTLTRRDLSNWDVAAQDWVITSYPKKVHVGSSSRQLPLHAALPKVQ
modifications: His tag
notes: GH family 3 beta-glucosidase of Aspergillus saccharolyticus; his-tagged, expressed in T. reesei and purified for characterisation
activity retained after 2 hours of incubation ([6]; 60 C): more than 90% | activity retained after 4 hours of incubation ([6]; 60 C): more than 70% | activity retained after 2 hours of incubation ([6]; 67 C): approx. 10% | stability at 50 C ([6]; purified BGL1): stable throughout the incubation period | half-life ([6]; purified BGL1, from 62 C up to 65 C): less than 2.5 hours | calculated half-life ([6]; purified BGL1, temperatures above 60 C): approximately 6 hours | stability at temperatures up to 58 C ([6]; up to four hours of incubation): fairly stable | activity at basic conditions [7]: below 10% | activity within pH range 3.8-4.8 [7]: above 90 % of maximum | pH optimum [7]: ~4.2 pH | mode of action in hydrolysis of cellohexaose [8]: hydrolyzes the different cellodextrins through exohydrolase action
